Experimental findings from patent US5091522A, “Retinoic esters of D-desosamine, process for their preparation and their use in human or veterinary medicine and in cosmetic compositions” (L'Oreal, priority 1989, dated 1992) are described below.

Format in all cases: cell-based
The subject of test [1] is Propionibacterium acnes P37 E⊖. Description: Minimum inhibiting concentration (MIC) by dilution method, P. acnes P37 E⊖ (erythromycin-resistant population). Particulars: Cutibacterium acnes, P37E.CRCLBAR. From the text: (§1) The activity of retinoic esters of D-desosamines has been studied by the dilution method to determine the minimum inhibiting concentration (MIC). This method is described and employed by G. A. Denys et al, Antimicrobial Agents and Chemotherapy (1983) 23, 335-337 and J. J. Leyden et al, J.Am.Acad. Dermatol. (1983) 8 (1) 41-5, by using as the Propionibacterium acnes strain, strain P37 furnished by Cunliffe and Holland.
(§2) On the other hand, after 8 successive sub-cultures in the same medium (RCM* 19/20, DMSO 1/20 by volume) with the view of obtaining a progressive stabilization of this strain in this medium, a progressive resistance to erythromycin was manifested in the following form:
(§3) after spreading a standardized inoculum (DO=1.8 at 450 nm) on a gelose medium (RCM+furazolidone), in a Petri dish, a 9 mm diameter disc is deposited at its center. On the disc, 50 μg of erythromycin (in solution in DMSO) are deposited.
(§4) The two types of colonies are then retained by stripping of the gelose medium (sterilized platinum loop):
(1) at the interior of the inhibition zone there are stripped off strains, called P37 E⊖ by reason of their apparent resistance to erythromycin.
(§5) After isolation and culturing, the P37 E⊕ and P37 E⊖ strains effectively show very different sensitivities to erythromycin as illustrated by the following MIC values:
(§6) The minimum concentration (MIC), expressed in μg/ml of the retinoic esters of D-desosamine tested vis-a-vis strains of Propionibacterium acnes P37, P37 E⊕ and P37 E⊖ and staphilococcus epidermis ATCC 12228, is reported in the following table: […]

Test [2] relates to Propionibacterium acnes P37 E⊕. Description: Minimum inhibiting concentration (MIC) by dilution method, P. acnes P37 E⊕ (erythromycin-sensitive population). Particulars: Cutibacterium acnes.
From the text: as §1, §2, §3, §4
(2) at 1 cm beyond the periphery of the inhibition zone, there are stripped off strains called P37 E⊕.
as §5, §6

The test system of test [3] is Propionibacterium acnes P37. The test is described as follows: Minimum inhibiting concentration (MIC) by dilution method, P. acnes strain P37.
From the text: as §1, §6

Test [4] deals with staphilococcus epidermis ATCC 12228. The test is described as follows: Minimum inhibiting concentration (MIC) by dilution method, staphilococcus epidermis ATCC 12228. Particulars: read-out: minimum concentration (MIC), TABLE I.
From the text: as §1, §6

Test [5] concerns Propionibacterium acnes P37 E⊕. The test is described as follows: IC 50 (50% survivors among the population at constant culturing time), P37 E⊕. Particulars: Cutibacterium acnes, read-out: IC 50 (inhibiting concentration at 50%). From the text:
(§7) This phenomenon is confirmed by the study of the IC 50 (inhibiting concentration at 50% which represents the concentration of erythromycin where, at a constant culturing time, 50% survivors among the population are found

For test [6], the system named is Propionibacterium acnes P37. The test is described as follows: IC 50 (50% survivors among the population at constant culturing time), P37. Particulars: Cutibacterium acnes, P37, read-out: IC 50 (inhibiting concentration at 50%).
From the text: as §7

The subject of test [7] is Propionibacterium acnes strain P37. The test is described as follows: Disc inhibition zone on gelose medium. Particulars: Cutibacterium acnes, P37, 144 h; 50 μg erythromycin on 9 mm disc; 6 days at 36 C, anaerobic; RCM+furazolidone; after 8 sub-cultures; read-out: inhibition zone of the growth of the strain (total diameter). On the procedure:
as §2, §3
After 6 days at 36.C in an anaerobic medium (GAS-PAK, B.B.L. system) an inhibition zone of the growth of the strain is clearly visible (total diameter =42 mm), the majority of the colonies being situated at the periphery of the inhibition zone.

The test system of test [8] is Propionibacterium acnes P37 E⊖. Description: IC 50 (50% survivors among the population at constant culturing time), P37 E⊖. Particulars: Cutibacterium acnes, P37E.CRCLBAR., read-out: IC 50 (inhibiting concentration at 50%).
From the text: as §7

[9] abbreviates: read-out: minimum concentration (MIC), TABLE I.
The mark [10] stands for this setting: P37E.SYM., P37 E⊕, read-out: minimum concentration (MIC), TABLE I.
Setting [11] is: Cutibacterium acnes, P37, read-out: minimum concentration (MIC), TABLE I.
[12] abbreviates: Cutibacterium acnes, P37; read-out: minimum concentration (MIC), TABLE I.

≈ marks a conversion by molar mass, not a printed value. Where two headings read alike, the source gives them in different places.

For orientation: zone of inhibition means the size of the clear area around the sample on an inoculated plate.

In the case of `CCCCOC1O[C@H](C)C[C@H](N(C)C)[C@H]1OC(=O)\C=C(C)/C=C/C=C(C)/C=C/C1=C(C)CCCC1(C)C` (stereo partly drawn) [Compound 1, O-retinoyl (13 cis)-2-O-butyl-1-α,β-D-desosamine], the MIC in test [1] (setting [9]) worked out at 10.5 µg/mL (≈ 20.4 µM); in test [2] (setting [10]), 21 µg/mL (≈ 40.9 µM); in test [3] (setting [11]) it was 10.5 µg/mL (≈ 20.4 µM); in test [4] (ATCC 12228) it was 18.5 µg/mL (≈ 36 µM).

As for `CCCCOC1O[C@H](C)C[C@H](N(C)C)[C@H]1OC(=O)/C=C(C)/C=C/C=C(C)/C=C/C1=C(C)CCCC1(C)C` (stereo partly drawn) [Compound 2, O-retinoyl (all trans)-2-O-butyl-1-α-β-D-desosamine], the MIC in test [1] (setting [9]) was 9 µg/mL (≈ 17.5 µM); in test [2] (setting [10]), 25 µg/mL (≈ 48.7 µM); in test [3] (setting [12]), 15 µg/mL (≈ 29.2 µM); in test [4] (ATCC 12228), 3.5 µg/mL (≈ 6.81 µM).

As to `CCCCOC1O[C@H](C)C[C@H](N(C)C)[C@H]1OC(=O)/C=C(C)/C=C/C=C(C)/C=C/c1c(C)cc(OC)c(C)c1C` (stereo partly drawn) [Compound 5, O-etretinoyl (all trans)-2-O-butyl-1-α,β-D-desosamine], the MIC stood at 6 µg/mL (≈ 11.1 µM) in test [1] (setting [9]), 6 µg/mL (≈ 11.1 µM) in test [2] (setting [10]), 3 µg/mL (≈ 5.56 µM) in test [3] (setting [12]) and 6 µg/mL (≈ 11.1 µM) in test [4] (ATCC 12228).

With `CCCCO[C@H]1O[C@H](C)C[C@H](N(C)C)[C@H]1OC(=O)/C=C(C)/C=C/C=C(C)/C=C/c1c(C)cc(OC)c(C)c1C` [Compound 6, O-etretinoyl (all trans)-2-O-butyl-1-α-D-desosamine], the MIC was determined as 2.1 µg/mL (≈ 3.89 µM) in test [1] (setting [9]), 4.3 µg/mL (≈ 7.97 µM) in test [2] (setting [10]), 19 µg/mL (≈ 35.2 µM) in test [3] (setting [12]) and 1.5 µg/mL (≈ 2.78 µM) in test [4] (ATCC 12228).

For `CCCCO[C@@H]1O[C@H](C)C[C@H](N(C)C)[C@H]1OC(=O)/C=C(C)/C=C/C=C(C)/C=C/c1c(C)cc(OC)c(C)c1C` [Compound 7, O-etretinoyl (all trans)-2-O-butyl-1-β-D-desosamine], the MIC was determined as 14.5 µg/mL (≈ 26.9 µM) in test [1] (setting [9]), 40 µg/mL (≈ 74.1 µM) in test [2] (setting [10]), 5.2 µg/mL (≈ 9.63 µM) in test [3] (setting [12]) and 2.3 µg/mL (≈ 4.26 µM) in test [4] (ATCC 12228).

With `CCCCOC1O[C@H](C)C[C@H](N(C)C)[C@H]1O` (stereo partly drawn) [O-butyl-1-α,β-D-desosamine, reference compound], the MIC in test [1] (setting [9]) was more than 110 µg/mL; in test [2] (setting [10]), more than 100 µg/mL; in test [3] (setting [12]), more than 100 µg/mL; in test [4] (ATCC 12228) it was more than 100 µg/mL.

`CO[C@H]1O[C@H](COC(=O)\C=C(C)/C=C/C=C(C)/C=C/C2=C(C)CCCC2(C)C)[C@@H](O)[C@H](O)[C@H]1O` [O-retinoyl (13 cis)-6-O-methyl-1-α-D-glucopyrannose, reference compound]: the MIC in test [1] (setting [9]), in test [2] (setting [10]), in test [3] (setting [12]) and in test [4] (ATCC 12228) was more than 45 µg/mL throughout.

As for `CC[C@H]1OC(=O)[C@H](C)[C@@H](O[C@H]2C[C@@](C)(OC)[C@@H](O)[C@H](C)O2)[C@H](C)[C@@H](O[C@@H]2O[C@H](C)C[C@H](N(C)C)[C@H]2O)[C@](C)(O)C[C@@H](C)C(=O)[C@H](C)[C@@H](O)[C@]1(C)O` [erythromycin], the IC50 amounted to 5 µg/mL (≈ 6.81 µM) in test [5], 50 µg/mL (≈ 68.1 µM) in test [6] and 100 µg/mL (≈ 136 µM) in test [8]. The MIC in test [1] was found to be 50 µg/mL (≈ 68.1 µM); in test [2], 0.78 µg/mL (≈ 1.06 µM); in test [3] (Cutibacterium acnes, P37) it was 0.78 µg/mL (≈ 1.06 µM). In test [7], the zone of inhibition at 50 µg/disc was determined as 42 mm.

`C[C@@H]1C[C@H](N(C)C)[C@@H](O)C(O)O1` (stereo partly drawn) [α,β-D-desosamine, reference compound]: the MIC in test [1] (setting [9]) is more than 70 µg/mL; in test [2] (setting [9]), more than 70 µg/mL; in test [3] (setting [11]), more than 50 µg/mL; in test [4] it was more than 50 µg/mL.
